The test system of one assay is MCF-7 cells. As to the kind of experiment: Breast Cancer Cell Viability Assay (MCF7 Viability Assay). In kind it is cell-based. The conditions noted are these: for IC50: Homo sapiens, MCF7, 120 h, read-out: MCF7 Viability Assay IC50. The procedure: MCF-7 cells were adjusted to a concentration of 20,000 cells per mL in RPMI containing 10% FBS and 20 mM HEPES. 16 microliters of the cell suspension (320 cells) was added to each well of a 384 well plate, and the cells were incubated overnight to allow the cells to adhere. The following day an eleven point, serial semilog dilution of each compound was added to the cells in 16 μL at a final concentration ranging from 0.3-0.000003 μM. After 5 days' compound exposure, 16 μL of CellTiter-GLo (Promega, Madison Wis.) was added to the cells the relative luminescence units (RLUs) of each well was determined. CellTiter-Glo added to 32 μL of medium without cells was used to obtain a background value. The Percent viability of each sample was determined as follows: (RLU sample-RLU background/RLU untreated cells-RLU background)×100=% viability.

The next assay concerns the target T1, ER-α (Homo sapiens, UniProt P03372).
T1 construct: endogenous in cells; host or cells: MCF-7
The experiment in a line: Breast Cancer Cell ER-α in Cell Western Assay (SP1). The format is cell-based. The conditions noted are these: MCF7, read-out: ER In-Cell Western Assay (SP1); Max Response. The procedure:
MCF-7 cells were adjusted to a concentration of 200,000 cells per mL in RPMI containing 10% charcoal-stripped FBS and 20 mM HEPES. 16 microliters of the cell suspension (3200 cells) was added to each well of a poly-D-lysine 384 well plate, and the cells were incubated overnight to allow the cells to adhere. The following day an eleven point, serial semilog dilution of each compound was added to the cells in 16 μL at a final concentration ranging from 0.3-0.000003 μM. At 4 or 24 hr post compound addition, the cells were fixed (10% formalin in PBS) for 20 minutes. Cells were permeablized in PBS 0.1% Triton and blocked with LICOR blocking buffer (50 μl/well, 90′). The wells were then incubated overnight at 4° C. with SP1 rabbit monoclonal Ab (Thermo Scientific) diluted 1:1000 in LICOR blocking buffer/0.1% Tween-20. Wells which were treated with blocking buffer with Tween but no antibody were used as a background control. Wells were washed with 0.1% Tween-20/PBS and then incubated in goat anti-rabbit IRDye™ 800 CW (LICOR Inc.; 1:1000) and DRAQ5 DNA dye (1:2000 for 2 mM stock) diluted in LICOR blocking buffer containing 0.1% Tween-20 and 0.01% SDS for 60 minutes. Cells were washed (50 μl/well, 5′ each) in 0.1% Tween-20/PBS. Plates were scanned on a LICOR Odyssey infrared imaging system. Integrated intensities in the 800 nm channel and 700 nm channel were measured to determine levels of ER and DNA respectively. Percent ER levels were determined as follows: (Integrated intensity 800 nm sample/integrated intensity 700 nm sample)/(Integrated intensity 800 nm untreated cells/integrated intensity 700 nm untreated cells)×100=% ER levels.

[1] abbreviates: MCF-7 cells, 5 days' compound exposure, CellTiter-Glo.

Read-outs that look alike come from different tables or passages of the source.

T1 sequence (P03372 whole entry): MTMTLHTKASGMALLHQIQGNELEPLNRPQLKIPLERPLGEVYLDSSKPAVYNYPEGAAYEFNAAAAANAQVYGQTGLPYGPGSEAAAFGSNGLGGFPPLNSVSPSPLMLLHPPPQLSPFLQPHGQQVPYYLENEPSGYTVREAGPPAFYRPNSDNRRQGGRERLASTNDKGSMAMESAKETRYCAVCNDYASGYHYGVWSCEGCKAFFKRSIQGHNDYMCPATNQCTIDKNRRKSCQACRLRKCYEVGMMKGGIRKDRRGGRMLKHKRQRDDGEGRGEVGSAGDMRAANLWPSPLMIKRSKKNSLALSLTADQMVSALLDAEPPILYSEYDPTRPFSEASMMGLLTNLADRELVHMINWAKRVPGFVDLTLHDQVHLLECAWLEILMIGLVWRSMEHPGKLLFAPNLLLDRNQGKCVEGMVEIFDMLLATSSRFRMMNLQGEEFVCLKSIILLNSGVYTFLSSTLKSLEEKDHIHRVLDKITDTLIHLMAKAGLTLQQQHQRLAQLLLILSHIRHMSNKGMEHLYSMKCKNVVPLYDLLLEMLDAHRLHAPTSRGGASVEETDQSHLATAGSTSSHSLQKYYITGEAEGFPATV

In the case of `CC1=C(c2cccc(O)c2)[C@@H](c2ccc(OCCN3CC[C@@H](CF)C3)cc2)Oc2ccc(O)cc21` (single isomer, unassigned) [Example 2a], the IC50 in the assay on MCF-7 cells is greater than 1 nM. In the assay with MCF-7 cells (setting [1]), the “MCF7 Viability Assay Max Response” value is reported as “++ (a single % value ≧ 50%)”. For the same molecule, the Emax at ER-α is greater than 85%.

With `CC1=C(c2cccc(O)c2)[C@H](c2ccc(OCCN3CC[C@@H](CF)C3)cc2)Oc2ccc(O)cc21` (single isomer, unassigned) [Example 2b], the IC50 with MCF-7 cells is less than 1 nM. In addition, in the assay on MCF-7 cells (setting [1]), the “MCF7 Viability Assay Max Response” value is given as “++ (a single % value ≧ 50%)”. Also, at ER-α, the Emax is greater than 85%.

`CC1=C(c2cccc(O)c2)[C@@H](c2ccc(OC[C@H](C)N3CC[C@@H](CF)C3)cc2)Oc2ccc(O)cc21` (single isomer, unassigned) [Example 3a]: the half-inhibitory concentration (IC50) with MCF-7 cells is greater than 1 nM. The “MCF7 Viability Assay Max Response” value with MCF-7 cells (setting [1]) was “++ (a single % value ≧ 50%)”. Also, at ER-α, the Emax is greater than 85%.

With `CC1=C(c2cccc(O)c2)[C@H](c2ccc(OC[C@H](C)N3CC[C@@H](CF)C3)cc2)Oc2ccc(O)cc21` (single isomer, unassigned) [Example 3b], in the assay with MCF-7 cells, the IC50 is less than 1 nM. Further, in the assay on MCF-7 cells (setting [1]), the “MCF7 Viability Assay Max Response” value is on record as “++ (a single % value ≧ 50%)”. In addition, on ER-α, the Emax is greater than 85%.

With `CC1=C(c2cccc(O)c2)C(c2ccc(OCCN3CC(CF)C3)cc2)Oc2ccc(O)cc21` (stereo not shown) [Example 1, 2-(4-(2-(3-(Fluoromethyl)azetidin-1-yl)ethoxy)phenyl)-3-(3-hydroxyphenyl)-4-methyl-2H-chromen-6-ol], the IC50 with MCF-7 cells was less than 1 nM. The “MCF7 Viability Assay Max Response” value in the assay with MCF-7 cells (setting [1]) is reported as “++ (a single % value ≧ 50%)”. The Emax at ER-α is greater than 85%.

On to `CC1=C(c2cccc(O)c2)C(c2ccc(OCCN3CC[C@@H](CF)C3)cc2)Oc2ccc(O)cc21` (stereo partly drawn) [Example 2, 2-(4-(2-((R)-3-(Fluoromethyl)pyrrolidin-1-yl)ethoxy)phenyl)-3-(3-hydroxyphenyl)-4-methyl-2H-chromen-6-ol], for which the concentration for half-maximal inhibition (IC50) with MCF-7 cells was less than 1 nM. For the same molecule, the “MCF7 Viability Assay Max Response” value in the assay with MCF-7 cells (setting [1]) is recorded as “++ (a single % value ≧ 50%)”. Besides, the Emax at ER-α is greater than 85%.

`CC1=C(c2cccc(O)c2)C(c2ccc(OC[C@H](C)N3CC[C@@H](CF)C3)cc2)Oc2ccc(O)cc21` (stereo partly drawn) [Example 3, 2-(4-((S)-2-((R)-3-(Fluoromethyl)pyrrolidin-1-yl)propoxy)phenyl)-3-(3-hydroxyphenyl)-4-methyl-2H-chromen-6-ol]: the IC50 in the assay with MCF-7 cells is less than 1 nM. Further, the “MCF7 Viability Assay Max Response” value in the assay on MCF-7 cells (setting [1]) was “++ (a single % value ≧ 50%)”. Further, the Emax on ER-α is greater than 85%.

`CC1=C(c2ccc(Cl)cc2)C(c2ccc(OCCN3CC[C@@H](CF)C3)cc2)Oc2ccc(O)cc21` (stereo partly drawn) [Example 4, 3-(4-Chlorophenyl)-2-(4-(2-((R)-3-(fluoromethyl)pyrrolidin-1-yl)ethoxy)phenyl)-4-methyl-2H-chromen-6-ol]: in the assay with MCF-7 cells (setting [1]), the IC50 is greater than 1 nM and the “MCF7 Viability Assay Max Response” value was “++ (a single % value ≧ 50%)”. For the same molecule, at ER-α, the Emax was greater than 85%.

In the case of `CC1=C(c2ccc(O)c(F)c2)C(c2ccc(OCCN3CC[C@@H](CF)C3)cc2)Oc2ccc(O)cc21` (stereo partly drawn) [Example 5, 3-(3-Fluoro-4-hydroxyphenyl)-2-(4-(2-((R)-3-(fluoromethyl)pyrrolidin-1-yl)ethoxy)phenyl)-4-methyl-2H-chromen-6-ol], in the assay with MCF-7 cells (setting [1]), the IC50 is less than 1 nM and the “MCF7 Viability Assay Max Response” value is “++ (a single % value ≧ 50%)”. Moreover, on ER-α, the Emax was greater than 85%.

Consider `CC1=C(c2cc(O)c(F)c(F)c2)C(c2ccc(OCCN3CC[C@@H](CF)C3)cc2)Oc2ccc(O)cc21` (stereo partly drawn) [Example 6, 3-(3,4-Difluoro-5-hydroxyphenyl)-2-(4-(2-((R)-3-(fluoromethyl)pyrrolidin-1-yl)ethoxy)phenyl)-4-methyl-2H-chromen-6-ol], for which, in the assay on MCF-7 cells (setting [1]), the half-inhibitory concentration (IC50) is less than 1 nM and the “MCF7 Viability Assay Max Response” value is reported as “++ (a single % value ≧ 50%)”. The Emax at ER-α is greater than 85%.

Turning to `CC1=C(c2cc(O)ccc2F)C(c2ccc(OCCN3CC[C@@H](CF)C3)cc2)Oc2ccc(O)cc21` (stereo partly drawn) [Example 7, 3-(2-Fluoro-5-hydroxyphenyl)-2-(4-(2-((R)-3-(fluoromethyl)pyrrolidin-1-yl)ethoxy)phenyl)-4-methyl-2H-chromen-6-ol], in the assay on MCF-7 cells (setting [1]), the IC50 was less than 1 nM and the “MCF7 Viability Assay Max Response” value was “++ (a single % value ≧ 50%)”. The Emax on ER-α is greater than 85%.

With `CC1=C(c2ccc(F)c(O)c2)C(c2ccc(OCCN3CC[C@@H](CF)C3)cc2)Oc2ccc(O)cc21` (stereo partly drawn) [Example 8, 3-(4-Fluoro-3-hydroxyphenyl)-2-(4-(2-((R)-3-(fluoromethyl)pyrrolidin-1-yl)ethoxy)phenyl)-4-methyl-2H-chromen-6-ol], in the assay with MCF-7 cells (setting [1]), the IC50 was greater than 1 nM and the “MCF7 Viability Assay Max Response” value was “++ (a single % value ≧ 50%)”. The Emax at ER-α is greater than 85%.

For `CC1=C(c2cc(O)c(F)c(F)c2)C(c2ccc(OC[C@H](C)N3CC[C@@H](CF)C3)cc2)Oc2ccc(O)cc21` (stereo partly drawn) [Example 9, 3-(3,4-Difluoro-5-hydroxyphenyl)-2-(4-((S)-2-((R)-3-(fluoromethyl)pyrrolidin-1-yl)propoxy)phenyl)-4-methyl-2H-chromen-6-ol], in the assay on MCF-7 cells (setting [1]), the IC50 was less than 1 nM and the “MCF7 Viability Assay Max Response” value was “++ (a single % value ≧ 50%)”. At ER-α, the Emax was greater than 85%.

For `CC1=C(c2cc(O)cc(F)c2)C(c2ccc(OCCN3CC[C@@H](CF)C3)cc2)Oc2ccc(O)cc21` (stereo partly drawn) [Example 10, 3-(3-Fluoro-5-hydroxyphenyl)-2-(4-(2-((R)-3-(fluoromethyl)pyrrolidin-1-yl)ethoxy)phenyl)-4-methyl-2H-chromen-6-ol], in the assay with MCF-7 cells (setting [1]), the half-maximal inhibitory concentration (IC50) is less than 1 nM and the “MCF7 Viability Assay Max Response” value is recorded as “++ (a single % value ≧ 50%)”. The Emax at ER-α was greater than 85%.

Turning to `CC1=C(c2ccc(F)c(O)c2)C(c2ccc(OC[C@H](C)N3CC[C@@H](CF)C3)cc2)Oc2ccc(O)cc21` (stereo partly drawn) [Example 11, 3-(4-Fluoro-3-hydroxyphenyl)-2-(4-((S)-2-((R)-3-(fluoromethyl)pyrrolidin-1-yl)propoxy)phenyl)-4-methyl-2H-chromen-6-ol], in the assay on MCF-7 cells (setting [1]), the half-maximal inhibitory concentration (IC50) was less than 1 nM and the “MCF7 Viability Assay Max Response” value is “++ (a single % value ≧ 50%)”. Moreover, the Emax at ER-α is greater than 85%.

Regarding `CC1=C(c2cc(O)cc(F)c2)C(c2ccc(OC[C@H](C)N3CC[C@@H](CF)C3)cc2)Oc2ccc(O)cc21` (stereo partly drawn) [Example 12, 3-(3-Fluoro-5-hydroxyphenyl)-2-(4-((S)-2-((R)-3-(fluoromethyl)pyrrolidin-1-yl)propoxy)phenyl)-4-methyl-2H-chromen-6-ol], in the assay with MCF-7 cells (setting [1]), the IC50 is less than 1 nM and the “MCF7 Viability Assay Max Response” value is on record as “++ (a single % value ≧ 50%)”. Further, on ER-α, the Emax was greater than 85%.

On to `CC1=C(c2ccc(O)c(F)c2)C(c2ccc(OC[C@H](C)N3CC[C@@H](CF)C3)cc2)Oc2ccc(O)cc21` (stereo partly drawn) [Example 13, 3-(3-Fluoro-4-hydroxyphenyl)-2-(4-((S)-2-((R)-3-(fluoromethyl)pyrrolidin-1-yl)propoxy)phenyl)-4-methyl-2H-chromen-6-ol], for which, in the assay on MCF-7 cells (setting [1]), the IC50 was less than 1 nM and the “MCF7 Viability Assay Max Response” value is reported as “++ (a single % value ≧ 50%)”. In addition, on ER-α, the Emax was greater than 85%.

Consider `CC1=C(c2cc(O)ccc2F)C(c2ccc(OC[C@H](C)N3CC[C@@H](CF)C3)cc2)Oc2ccc(O)cc21` (stereo partly drawn) [Example 14, 3-(2-Fluoro-5-hydroxyphenyl)-2-(4-((S)-2-((R)-3-(fluoromethyl)pyrrolidin-1-yl)propoxy)phenyl)-4-methyl-2H-chromen-6-ol], for which, in the assay with MCF-7 cells (setting [1]), the IC50 is less than 1 nM and the “MCF7 Viability Assay Max Response” value was “++ (a single % value ≧ 50%)”. For the same molecule, the Emax on ER-α was greater than 85%.

As to `CC1=C(c2ccc(Cl)cc2)C(c2ccc(OC[C@H](C)N3CC[C@@H](CF)C3)cc2)Oc2ccc(O)cc21` (stereo partly drawn) [Example 15, 3-(4-Chlorophenyl)-2-(4-((S)-2-((R)-3-(fluoromethyl)pyrrolidin-1-yl)propoxy)phenyl)-4-methyl-2H-chromen-6-ol], in the assay with MCF-7 cells (setting [1]), the half-inhibitory concentration (IC50) was greater than 1 nM and the “MCF7 Viability Assay Max Response” value is listed as “++ (a single % value ≧ 50%)”. In addition, at ER-α, the Emax is greater than 85%.

On to `CC1=C(c2cccc(O)c2)C(c2ccc(OCCN3CCC(CF)CC3)cc2)Oc2ccc(O)cc21` (stereo not shown) [Example 19, 2-(4-(2-(4-(Fluoromethyl)piperidin-1-yl)ethoxy)phenyl)-3-(3-hydroxyphenyl)-4-methyl-2H-chromen-6-ol], for which the Emax on ER-α lay within 60 to 85%.
